Source: article PMC5218480 (PLoS ONE, 2017)

System: MV-4-11 cells
Experiment: Gene expression microarray analysis (Affymetrix PrimeView) and GSEA
Format: cell-based, human
Set-up: RFU PODN (11730768_x_at) / Fold change /veh PODN (11730768_x_at) / RFU LINC00158 (11744669_a_at) / Fold change /veh LINC00158 (11744669_a_at) / RFU DUSP10 (11751237_a_at) / Fold change /veh DUSP10 (11751237_a_at) / RFU ID3 (11757404_x_at) / Fold change /veh ID3 (11757404_x_at) / RFU PLEKHG5 (11737974_s_at) / Fold change /veh PLEKHG5 (11737974_s_at) / RFU LRRC4B (11730491_at) / Fold change /veh LRRC4B (11730491_at) / RFU GIMAP4 (11747438_a_at) / Fold change /veh GIMAP4 (11747438_a_at) / RFU KRT8 (11758183_x_at) / Fold change /veh KRT8 (11758183_x_at) / RFU CNN1 (11734310_a_at) / Fold change /veh CNN1 (11734310_a_at) / RFU VPS37D (11726825_at) / Fold change /veh VPS37D (11726825_at) / RFU C10orf10 (11716522_x_at) / Fold change /veh C10orf10 (11716522_x_at) / RFU KIR2DL2 /// KIR2DL4 /// KIR2DL5A /// KIR2DL5B /// KIR2DS1 /// KIR2DS2 /// KIR2DS3 /// KIR2DS4 /// KIR3DL3 /// KIR3DL3 /// KIR3DS1 (11738374_at) / Fold change /veh KIR2DL2 /// KIR2DL4 /// KIR2DL5A /// KIR2DL5B /// KIR2DS1 /// KIR2DS2 /// KIR2DS3 /// KIR2DS4 /// KIR3DL3 /// KIR3DL3 /// KIR3DS1 (11738374_at) / RFU C1QL1 (11718748_at) / Fold change /veh C1QL1 (11718748_at) / RFU TMPRSS4 (11747572_a_at) / Fold change /veh TMPRSS4 (11747572_a_at) / RFU HAMP (11756126_x_at) / Fold change /veh HAMP (11756126_x_at) / RFU RNFT2 (11725882_a_at) / Fold change /veh RNFT2 (11725882_a_at) / RFU NR4A2 (11747474_a_at) / Fold change /veh NR4A2 (11747474_a_at) / RFU ABCC12 (11746883_a_at) / Fold change /veh ABCC12 (11746883_a_at) / RFU TMEM136 (11760407_x_at) / Fold change /veh TMEM136 (11760407_x_at) / RFU CLDN22 /// WWC2 (11732394_at) / Fold change /veh CLDN22 /// WWC2 (11732394_at) / RFU HLA-DPB1 (11760878_x_at) / Fold change /veh HLA-DPB1 (11760878_x_at) / RFU SPINT1 (11716480_a_at) / Fold change /veh SPINT1 (11716480_a_at) / RFU GAP43 (11754022_s_at) / Fold change /veh GAP43 (11754022_s_at) / RFU A4GNT (11735810_at) / Fold change /veh A4GNT (11735810_at) / RFU PRB3 (11715151_x_at) / Fold change /veh PRB3 (11715151_x_at) / RFU TUBB4B (11761932_at) / Fold change /veh TUBB4B (11761932_at) / RFU CAPN14 (11732068_a_at) / Fold change /veh CAPN14 (11732068_a_at) / RFU TMCC2 (11721928_a_at) / Fold change /veh TMCC2 (11721928_a_at) / RFU IRGQ (11745062_a_at) / Fold change /veh IRGQ (11745062_a_at) / RFU FAM174B (11720279_a_at) / Fold change /veh FAM174B (11720279_a_at) / RFU TMPRSS4 (11748680_a_at) / Fold change /veh TMPRSS4 (11748680_a_at) / RFU FAM212B (11763350_a_at) / Fold change /veh FAM212B (11763350_a_at) / RFU PLEKHG5 (11743358_a_at) / Fold change /veh PLEKHG5 (11743358_a_at) / RFU ZSCAN30 (11745921_a_at) / Fold change /veh ZSCAN30 (11745921_a_at) / RFU CMKLR1 (11741424_a_at) / Fold change /veh CMKLR1 (11741424_a_at) / RFU LOC101060620 /// MAPK8IP1 (11723275_at) / Fold change /veh LOC101060620 /// MAPK8IP1 (11723275_at) / RFU SPTSSB (11747773_x_at) / Fold change /veh SPTSSB (11747773_x_at) / RFU PRSS12 (11739890_at) / Fold change /veh PRSS12 (11739890_at) / RFU BIN1 (11741810_x_at) / Fold change /veh BIN1 (11741810_x_at) / RFU WNT11 (11732464_a_at) / Fold change /veh WNT11 (11732464_a_at) / RFU C10orf10 (11716521_a_at) / Fold change /veh C10orf10 (11716521_a_at) / RFU C5orf56 (11738089_at) / Fold change /veh C5orf56 (11738089_at) / RFU CYB561 (11721691_x_at) / Fold change /veh CYB561 (11721691_x_at) / RFU ANKRD19P (11752326_a_at) / Fold change /veh ANKRD19P (11752326_a_at) / RFU OR2T12 /// OR2T33 /// OR2T8 (11738714_s_at) / Fold change /veh OR2T12 /// OR2T33 /// OR2T8 (11738714_s_at) / RFU VCAN (11748164_a_at) / Fold change /veh VCAN (11748164_a_at) / RFU JSRP1 (11732532_at) / Fold change /veh JSRP1 (11732532_at) / RFU KRTAP10-11 (11738290_x_at) / Fold change /veh KRTAP10-11 (11738290_x_at) / RFU MYO3A (11730013_a_at) / Fold change /veh MYO3A (11730013_a_at) / RFU EBF3 (11725865_a_at) / Fold change /veh EBF3 (11725865_a_at) / RFU CAMK2N1 (11719241_x_at) / Fold change /veh CAMK2N1 (11719241_x_at) / RFU C5orf56 (11738088_a_at) / Fold change /veh C5orf56 (11738088_a_at) / RFU OLFML3 (11715873_a_at) / Fold change /veh OLFML3 (11715873_a_at) / RFU LOC100653217 /// NTM (11731650_a_at) / Fold change /veh LOC100653217 /// NTM (11731650_a_at) / RFU MAPK11 (11762145_a_at) / Fold change /veh MAPK11 (11762145_a_at) / RFU FIZ1 (11724087_x_at) / Fold change /veh FIZ1 (11724087_x_at) / RFU OASL (11726364_x_at) / Fold change /veh OASL (11726364_x_at) / RFU SOX15 (11748057_x_at) / Fold change /veh SOX15 (11748057_x_at) / RFU CD79A (11719716_a_at) / Fold change /veh CD79A (11719716_a_at) / RFU HIST1H1D (11736915_at) / Fold change /veh HIST1H1D (11736915_at) / RFU CASKIN2 (11723855_a_at) / Fold change /veh CASKIN2 (11723855_a_at) / RFU LOC730098 (11760151_x_at) / Fold change /veh LOC730098 (11760151_x_at) / RFU OR4N2 (11742367_at) / Fold change /veh OR4N2 (11742367_at) / RFU PRRT2 (11749266_a_at) / Fold change /veh PRRT2 (11749266_a_at) / RFU SNX32 (11753110_a_at) / Fold change /veh SNX32 (11753110_a_at) / RFU CDHR5 (11726645_a_at) / Fold change /veh CDHR5 (11726645_a_at) / RFU RCAN1 (11760418_a_at) / Fold change /veh RCAN1 (11760418_a_at) / RFU FAM167A (11723789_a_at) / Fold change /veh FAM167A (11723789_a_at) / RFU FAM26E (11764081_at) / Fold change /veh FAM26E (11764081_at) / RFU ISYNA1 (11749810_s_at) / Fold change /veh ISYNA1 (11749810_s_at) / RFU ACY1 (11761880_at) / Fold change /veh ACY1 (11761880_at) / RFU 11764098_at / Fold change /veh 11764098_at / RFU SAMD14 (11745864_x_at) / Fold change /veh SAMD14 (11745864_x_at) / RFU NPB (11741838_a_at) / Fold change /veh NPB (11741838_a_at) / RFU TMPRSS6 (11731388_a_at) / Fold change /veh TMPRSS6 (11731388_a_at) / RFU KRTAP10-2 (11738614_at) / Fold change /veh KRTAP10-2 (11738614_at) / RFU ARHGAP8 /// PRR5-ARHGAP8 (11727945_x_at) / Fold change /veh ARHGAP8 /// PRR5-ARHGAP8 (11727945_x_at) / RFU KRTAP5-7 /// NADSYN1 (11734609_at) / Fold change /veh KRTAP5-7 /// NADSYN1 (11734609_at) / RFU RASL12 (11751679_a_at) / Fold change /veh RASL12 (11751679_a_at) / RFU CDKN2B (11736163_a_at) / Fold change /veh CDKN2B (11736163_a_at) / RFU PRF1 (11729649_at) / Fold change /veh PRF1 (11729649_at) / RFU, ZNF638 /// ZNF638-IT1 / Fold change vs veh, ZNF638 /// ZNF638-IT1 / RFU, PANK3 / Fold change vs veh, PANK3 / RFU, SH3YL1 / Fold change vs veh, SH3YL1 / RFU, ZEB2 / Fold change vs veh, ZEB2 / RFU, NRIP1 / Fold change vs veh, NRIP1 / RFU, PTTG1IP / Fold change vs veh, PTTG1IP / RFU, CAPN2 / Fold change vs veh, CAPN2 / RFU, MED14 / Fold change vs veh, MED14 / RFU, SNORA58 / Fold change vs veh, SNORA58 / RFU, C1orf63 / Fold change vs veh, C1orf63 / RFU, LRRFIP1 / Fold change vs veh, LRRFIP1 / RFU, NDUFAF7 / Fold change vs veh, NDUFAF7 / RFU, SLC12A2 / Fold change vs veh, SLC12A2 / RFU, IBTK / Fold change vs veh, IBTK / RFU, ESF1 / Fold change vs veh, ESF1 / Fold change vs veh, TMEM50B / RFU, TAOK1 / Fold change vs veh, TAOK1 / RFU, ACBD3 / Fold change vs veh, ACBD3 / RFU, TMA16 / Fold change vs veh, TMA16 / RFU, RWDD3 / Fold change vs veh, RWDD3 / RFU, BCAT1 / Fold change vs veh, BCAT1 / RFU, EDEM3 / Fold change vs veh, EDEM3 / RFU, TMEM33 / Fold change vs veh, TMEM33 / RFU, WDR75 / Fold change vs veh, WDR75 / RFU, AHCTF1 / Fold change vs veh, AHCTF1 / RFU, TFRC / Fold change vs veh, TFRC / RFU, ZDHHC17 / Fold change vs veh, ZDHHC17 / RFU, NOM1 / Fold change vs veh, NOM1 / RFU, ARL8B / Fold change vs veh, ARL8B / RFU, ZBTB11 / Fold change vs veh, ZBTB11 / RFU, TAMM41 / Fold change vs veh, TAMM41 / RFU, KIAA1704 /// LOC100996395 / Fold change vs veh, KIAA1704 /// LOC100996395 / RFU, ING1 / Fold change vs veh, ING1 / RFU, TRMT61B / Fold change vs veh, TRMT61B / RFU, FUBP3 / Fold change vs veh, FUBP3 / RFU, TP53 / Fold change vs veh, TP53 / RFU, TNKS2 / Fold change vs veh, TNKS2 / RFU, ZFP14 / Fold change vs veh, ZFP14 / RFU, ACTR2 / Fold change vs veh, ACTR2 / RFU, PPP3R1 / Fold change vs veh, PPP3R1 / RFU, PIK3R1 / Fold change vs veh, PIK3R1 / RFU, HNRNPA1 / Fold change vs veh, HNRNPA1 / RFU, RNF170 / Fold change vs veh, RNF170 / RFU, ZNF28 / Fold change vs veh, ZNF28 / RFU, RNGTT / Fold change vs veh, RNGTT / RFU, OGT / Fold change vs veh, OGT / RFU, BRD1 / Fold change vs veh, BRD1 / RFU, MARS / Fold change vs veh, MARS / RFU, ZNF655 / Fold change vs veh, ZNF655 / RFU, FAHD1 / Fold change vs veh, FAHD1 / RFU, BDP1 / Fold change vs veh, BDP1 / RFU, LRRCC1 / Fold change vs veh, LRRCC1 / RFU, ARID1A / Fold change vs veh, ARID1A / RFU, ZNF146 / Fold change vs veh, ZNF146 / RFU, ZNF330 / Fold change vs veh, ZNF330 / RFU, GPN3 / Fold change vs veh, GPN3 / RFU, C9orf123 / Fold change vs veh, C9orf123 / RFU, N4BP2L2 / Fold change vs veh, N4BP2L2 / RFU, ARFIP1 / Fold change vs veh, ARFIP1 / RFU, FAM179B / Fold change vs veh, FAM179B / RFU, BCL10 / Fold change vs veh, BCL10 / RFU, UHRF1BP1L / Fold change vs veh, UHRF1BP1L / RFU, BET1 / Fold change vs veh, BET1 / RFU, CNOT2 / Fold change vs veh, CNOT2 / RFU, ZNF268 / Fold change vs veh, ZNF268 / Fold change vs veh, ZNF507 / RFU, DGCR2 / Fold change vs veh, DGCR2 / RFU, WDSUB1 / Fold change vs veh, WDSUB1 / Fold change vs veh, HSP90B1 /// MIR3652 / RFU, ADSS / Fold change vs veh, ADSS / RFU, GK / Fold change vs veh, GK / RFU, ZNF148 / Fold change vs veh, ZNF148 / RFU, TAF9 / Fold change vs veh, TAF9 / RFU, SLC1A5 / Fold change vs veh, SLC1A5 / RFU, SLMO2 / Fold change vs veh, SLMO2 / RFU, ABCC4 / Fold change vs veh, ABCC4 / RFU, LOC101060439 /// RAP1B / Fold change vs veh, LOC101060439 /// RAP1B / RFU, RFX7 / Fold change vs veh, RFX7 / RFU, GTPBP10 / Fold change vs veh, GTPBP10 / RFU, CNEP1R1 / Fold change vs veh, CNEP1R1 / RFU, BIVM-ERCC5 /// ERCC5 / Fold change vs veh, BIVM-ERCC5 /// ERCC5 / RFU, ILF3 / Fold change vs veh, ILF3 / RFU 11762660_at / Fold change /veh 11762660_at / RFU VCAN (11757783_s_at) / Fold change /veh VCAN (11757783_s_at) / RFU DDX43 (11728927_at) / Fold change /veh DDX43 (11728927_at) / RFU KRT8 (11758188_x_at) / Fold change /veh KRT8 (11758188_x_at) / RFU NKD1 (11759106_at) / Fold change /veh NKD1 (11759106_at) / RFU SRD5A1 (11742802_a_at) / Fold change /veh SRD5A1 (11742802_a_at) / RFU TPSAB1 /// TPSB2 (11721975_s_at) / Fold change /veh TPSAB1 /// TPSB2 (11721975_s_at) / RFU GSTM3 (11746129_a_at) / Fold change /veh GSTM3 (11746129_a_at) / RFU IL23R (11737362_x_at) / Fold change /veh IL23R (11737362_x_at) / RFU TMEM51 (11727254_a_at) / Fold change /veh TMEM51 (11727254_a_at) / RFU PIWIL2 (11732686_x_at) / Fold change /veh PIWIL2 (11732686_x_at) / RFU ORM1 (11744905_x_at) / Fold change /veh ORM1 (11744905_x_at) / RFU CCDC152 (11743942_at) / Fold change /veh CCDC152 (11743942_at) / RFU ECM1 (11717891_a_at) / Fold change /veh ECM1 (11717891_a_at) / RFU IL23R (11748794_a_at) / Fold change /veh IL23R (11748794_a_at) / RFU TNFAIP8L3 (11732012_x_at) / Fold change /veh TNFAIP8L3 (11732012_x_at) / RFU MBOAT4 (11741988_at) / Fold change /veh MBOAT4 (11741988_at) / RFU 11764193_at / Fold change /veh 11764193_at / RFU TMEM53 (11763286_at) / Fold change /veh TMEM53 (11763286_at) / RFU MAGEB2 (11727129_at) / Fold change /veh MAGEB2 (11727129_at) / RFU TMEM200A (11744735_a_at) / Fold change /veh TMEM200A (11744735_a_at) / RFU CCDC152 (11751479_a_at) / Fold change /veh CCDC152 (11751479_a_at) / RFU FAM211A (11726209_a_at) / Fold change /veh FAM211A (11726209_a_at) / RFU RGS16 (11746705_a_at) / Fold change /veh RGS16 (11746705_a_at) / RFU VCAN (11755009_s_at) / Fold change /veh VCAN (11755009_s_at) / RFU RHOB (11743442_s_at) / Fold change /veh RHOB (11743442_s_at) / RFU RGS16 (11720943_a_at) / Fold change /veh RGS16 (11720943_a_at) / RFU RGS16 (11720944_at) / Fold change /veh RGS16 (11720944_at) / RFU, VPS4B / Fold change vs veh, VPS4B / RFU, CREB1 / Fold change vs veh, CREB1 / RFU, DNAJC13 / Fold change vs veh, DNAJC13 / RFU, GNAQ / Fold change vs veh, GNAQ / RFU, CDK5R1 / Fold change vs veh, CDK5R1 / RFU, ZRANB3 / Fold change vs veh, ZRANB3 / RFU, CUL4A / Fold change vs veh, CUL4A / RFU, CCNY / Fold change vs veh, CCNY / RFU, UFL1 / Fold change vs veh, UFL1 / RFU, COG3 / Fold change vs veh, COG3 / RFU, DIAPH2 / Fold change vs veh, DIAPH2 / RFU, SKA2 / Fold change vs veh, SKA2 / RFU, AFF3 / Fold change vs veh, AFF3 / RFU, LMF1 / Fold change vs veh, LMF1 / RFU, IPO11 / Fold change vs veh, IPO11 / RFU, DFFB / Fold change vs veh, DFFB / RFU, FOXP1 / Fold change vs veh, FOXP1 / RFU, CARD8 / Fold change vs veh, CARD8 / RFU, STRN3 / Fold change vs veh, STRN3 / RFU, ADK / Fold change vs veh, ADK / RFU, RASSF2 / Fold change vs veh, RASSF2 / RFU, WIPF1 / Fold change vs veh, WIPF1 / RFU, LARP1B / Fold change vs veh, LARP1B / RFU, RASA1 / Fold change vs veh, RASA1 / RFU, RB1 / Fold change vs veh, RB1 / RFU, PPFIA1 / Fold change vs veh, PPFIA1 / RFU, MAT2A / Fold change vs veh, MAT2A / RFU, CCT5 / Fold change vs veh, CCT5 / RFU, WDR92 / Fold change vs veh, WDR92 / RFU, CUX1 / Fold change vs veh, CUX1 / RFU, TTC7A / Fold change vs veh, TTC7A / RFU, TMEM135 / Fold change vs veh, TMEM135 / RFU, DEPTOR / Fold change vs veh, DEPTOR / RFU, CPM / Fold change vs veh, CPM / RFU, DNAJB6 / Fold change vs veh, DNAJB6 / RFU, CACNA2D3 / Fold change vs veh, CACNA2D3 / RFU, DTX4 / Fold change vs veh, DTX4 / RFU, TFCP2 / Fold change vs veh, TFCP2 / RFU, GMCL1 /// GMCL1P1 / Fold change vs veh, GMCL1 /// GMCL1P1 / RFU, AEBP2 / Fold change vs veh, AEBP2 / RFU, SNHG1 /// SNORD22 /// SNORD25 /// SNORD26 /// SNORD27 /// SNORD28 /// SNORD29 /// SNORD31 / Fold change vs veh, SNHG1 /// SNORD22 /// SNORD25 /// SNORD26 /// SNORD27 /// SNORD28 /// SNORD29 /// SNORD31 / Fold change (Aza/veh), C12orf56 (ProbeSet 11735607_a_at) / Fold change (ACY-1035/veh), C12orf56 (ProbeSet 11735607_a_at) / Fold change (Aza/veh), FGFR1OP (ProbeSet 11751329_s_at) / Fold change (ACY-1035/veh), FGFR1OP (ProbeSet 11751329_s_at) / Fold change (Aza/veh), VPS36 (ProbeSet 11739960_a_at) / Fold change (ACY-1035/veh), VPS36 (ProbeSet 11739960_a_at) / RFU SYPL1 (11715823_x_at) / Fold change /veh SYPL1 (11715823_x_at) / RFU IGFBP7 (11715501_s_at) / Fold change /veh IGFBP7 (11715501_s_at) / RFU REEP3 (11722064_at) / Fold change /veh REEP3 (11722064_at) / RFU IGLL1 (11728026_x_at) / Fold change /veh IGLL1 (11728026_x_at): dose or concentration left out as unconfirmed
Settings: ProbeSet 11716999_a_at; LIST D

## Nc1ncn([C@@H]2O[C@H](CO)[C@@H](O)[C@H]2O)c(=O)n1 [azacitidine]
  RFU, RASA1: 172.86 RFU
